Measured values as given in PMC6178183, “Development of a HPLC-MS/MS Method to Determine 11 Bioactive Compounds in Tongmai Yangxin Pill and Application to a Pharmacokinetic Study in Rats” (Evidence-based Complementary and Alternative Medicine : eCAM, 2018).

Tests used:
[1] = parameters: method as in PMID 25943824; conditions: active ingredients of TMYX with high R values; cited from earlier work
[2] = Stability of analytes in rat plasma QC samples under storage conditions; format: in vitro ADME; conditions: n=6, gallic acid, ononin, schisandrin, stilbene glycoside, liquiritigenin, rhein, verbascoside; for Measured Concentration, auto-sampler for 12 h: prepared rat plasma samples; for Measured Concentration, -70°C for 14 days / Measured Concentration, room temperature for 6 h / Measured Concentration, three freeze-thaw cycles: rat plasma
Description: Quality control (QC) samples at three concentrations (low, medium, and high concentration) were made up of appropriate mixed standard solutions with blank blood sample as calibration solutions to meet the required concentrations. All the solutions were kept at 4°C.
The stability of analytes in plasma samples was determined by analyzing QC samples of three concentration levels at different conditions: stored at autosampler for 12 h, at room temperature for 6 h, under three freeze-thaw cycles and stored at -70°C for 14 days. All stability studies were measured in six replicates.

[3] = Pharmacokinetic study in rats after oral administration of TMYX extract (HPLC-MS/MS of plasma); format: in vivo, Sprague–Dawley rats; conditions: rat plasma, oral TMYX extract 8.3 g/kg single dose; for AUC(0-inf) / half-life / AUC / k el: male, Sprague-Dawley; for AUC(0-inf) / half-life / AUC / k el / C max1: n=6; for AUC: read-out: AUC (0-tn); for k el: read-out: K e (converted); for T max1: n=6, mean ± SD
Description: The HPLC-MS/MS system consists of an Agilent 1200 high-performance liquid chromatography coupled with an Aglient 6430 series triple quadrupole mass spectrometer with an electrospray ionization (ESI) source. The chromatographic separation was achieved on a CORTECS C18 column (4.6 mm × 150 mm, 2.7 μm), and the column temperature was kept at 30°C. Mobile phases which consisted of 0.1% formic acid in water (A) and acetonitrile (B) were used in the following gradient elution method: 0-10 min, 10%-85% B; 10-13 min, 85%-95% B; 13-19 min, 95%-95% B. The flow rate was set at 0.3 mL/min, and the injection volume was 10 μL. All data were analyzed by Mass Hunter workstation software (Agilent Technologies, USA).
The mass spectrometer was carried out in both positive and negative ionization multiple-reaction monitoring (MRM) mode. The source parameters were as follows: the capillary voltage set at 300 V for positive ionization mode and -300 V for negative ionization mode, the drying gas temperature was 320°C, the flow was 11 L/min, and nebulizing gas pressure was 30 psi.
The plasma (100 μL) was spiked with 20 μL of methanol, 20 μL of the IS (icariin, 1 μg/mL), and 20 μL of formic acid and then vortex-mixed. The mixture was extracted with 800 μL of ethyl acetate by vortex mixing for 5 min at room temperature. After centrifugation at 14,000 rpm for 10 min, the supernatant was collected to a clean tube and evaporated to dryness under a nitrogen stream. The residue was reconstituted in 50 μL of 50% methanol, vortexed for 5 min, and centrifuged at 14,000 rpm for 10 min. Finally, 10 μL supernatant was injected into the LC-MS/MS system for analysis.
Male Sprague–Dawley rats (230-250 g) were obtained from Beijing HFK Experimental Animal Technology Co., Ltd. The rats were maintained under the control environmental conditions and they fasted for 12 h with free access to water before the experiments. TMYX extracts were dissolved in CMC-Na and administrated orally to rats at 8.3 g/kg. The blood samples (200 μL) were collected from the rat fossa orbitalis vein at 0, 0.03, 0.083, 0.17, 0.25, 0.5, 1, 2, 4, 6, 8, 10, 12, 24, 36, and 48 h after oral administration to heparinized tubes. And then the blood samples were centrifuged at 7,000 rpm for 10 min to get the plasma sample immediately. Finally, the plasma obtained was stored at −70°C until analysis. Pharmacokinetic parameters were calculated by the computer program “Drug and Statistics 2.0” (DAS 2.0) (Medical College of Wannan, China).

[4] = high QC: spiked 2000 ng/mL glycyrrhizic acid, 1000 liquiritin, 200 emodin, 100 isoliquiritigenin
[5] = low QC: spiked 20 ng/mL glycyrrhizic acid, 10 liquiritin, 2 emodin, 1 isoliquiritigenin
[6] = medium QC: spiked 200 ng/mL glycyrrhizic acid, 100 liquiritin, 20 emodin, 10 isoliquiritigenin

Structure (SMILES)	antiinflammatory effects [1]	Measured Concentration, auto-sampler for 12 h [2, 4] [ng/mL]	Measured Concentration, auto-sampler for 12 h [2, 5] [ng/mL]	Measured Concentration, auto-sampler for 12 h [2, 6] [ng/mL]	Measured Concentration, -70°C for 14 days [2, 4] [ng/mL]	Measured Concentration, room temperature for 6 h [2, 4] [ng/mL]	Measured Concentration, three freeze-thaw cycles [2, 4] [ng/mL]	Measured Concentration, -70°C for 14 days [2, 5] [ng/mL]	Measured Concentration, room temperature for 6 h [2, 5] [ng/mL]	Measured Concentration, three freeze-thaw cycles [2, 5] [ng/mL]	Measured Concentration, -70°C for 14 days [2, 6] [ng/mL]	Measured Concentration, room temperature for 6 h [2, 6] [ng/mL]	Measured Concentration, three freeze-thaw cycles [2, 6] [ng/mL]	AUC(0-inf) [3] [ng·h/mL]	half-life [3] [h]	AUC [3] [ng·h/mL]	k el [3] [s⁻¹]	C max1 [3] [ng/mL]	T max1 [3] [h]
COc1ccc(-c2coc3cc(O)ccc3c2=O)cc1 [formononetin]	exert antiinflammatory effects in a dose-dependent manner																		
COc1cc2c(c(OC)c1OC)-c1c3cc4c(c1OC[C@@H](C)[C@@](C)(O)C(=O)O[C@@H]2[C@@](C)(O)[C@@H](C)C3)OCO4 [gomisin D]	exert antiinflammatory effects in a dose-dependent manner																		
COc1ccc(-c2coc3cc(O[C@@H]4O[C@H](CO)[C@@H](O)[C@H](O)[C@H]4O)ccc3c2=O)cc1 [ononin]	exert antiinflammatory effects in a dose-dependent manner	195.34 ± 4.30	1.83 ± 0.01	18.84 ± 0.62	200.23 ± 3.89	216.32 ± 0.91	191.28 ± 2.36	1.95 ± 0.01	2.02 ± 0.03	1.85 ± 0.01	18.51 ± 0.15	20.57 ± 0.26	18.71 ± 0.26	69.4 ± 28.5	2.85 ± 1.4	58.2 ± 20.2	0.000103	14.4 ± 6.8	0.46 ± 0.10
O=C(O)c1cc(O)c2c(c1)C(=O)c1cccc(O)c1C2=O [rhein]		97.32 ± 1.05	0.97 ± 0.01	9.86 ± 0.09	85.95 ± 0.39	101.97 ± 1.07	86.7 ± 1.33	0.95 ± 0.05	0.97 ± 0.02	0.98 ± 0.03	8.71 ± 0.11	10.23 ± 0.04	8.89 ± 0.08	152 ± 61.3	2.84 ± 2.13	145 ± 52.6	0.000156	46.3 ± 15.6	0.36 ± 0.31
COc1cc2c(c(OC)c1OC)-c1c(cc(OC)c(OC)c1OC)C[C@](C)(O)[C@@H](C)C2 [schisandrin]	exert antiinflammatory effects in a dose-dependent manner	196.02 ± 2.10	1.83 ± 0.02	18.35 ± 0.09	183.83 ± 1.00	194.61 ± 1.13	189.32 ± 1.74	1.77 ± 0.03	2.00 ± 0.04	1.71 ± 0.01	17.86 ± 0.20	21.15 ± 0.50	18.28 ± 0.23	473 ± 321	2.73 ± 1.54	411 ± 239	9.44e-05	92.6 ± 53.0	1.00 ± 0.92
OC[C@H]1O[C@@H](Oc2c(O)cc(O)cc2/C=C/c2ccc(O)cc2)[C@H](O)[C@@H](O)[C@@H]1O [stilbene glycoside]	exert antiinflammatory effects in a dose-dependent manner	182.40 ± 1.23	1.89 ± 0.00	19.00 ± 0.64	203.34 ± 1.39	202.79 ± 12.80	200.45 ± 2.10	1.99 ± 0.01	1.82 ± 0.01	2.00 ± 0.03	20.01 ± 0.31	20.88 ± 1.19	19.87 ± 1.43	298 ± 185	1.99 ± 1.31	284 ± 189	0.000125	99.1 ± 27.1	0.50 ± 0.31
C[C@@H]1O[C@@H](O[C@@H]2[C@@H](O)[C@H](OCCc3ccc(O)c(O)c3)O[C@H](CO)[C@H]2OC(=O)/C=C/c2ccc(O)c(O)c2)[C@H](O)[C@H](O)[C@H]1O [verbascoside]		93.52 ± 0.27	1.05 ± 0.02	9.50 ± 0.04	107.40 ± 1.47	103.95 ± 1.33	108.42 ± 1.17	1.01 ± 0.02	0.92 ± 0.01	1.09 ± 0.01	9.81 ± 0.22	9.57 ± 0.21	10.17 ± 0.90	61 ± 29.8	1.53 ± 0.67	51.4 ± 29.8	0.000156	23.4 ± 8.7	0.37 ± 0.18
